From US11820833B2, “Peptides that inhibit binding of EPCR to its ligand to treat inflammation” (Tel HaShomer Medical Research Infrastructure and Services …, priority 2016, dated 2023)
Entries after “also recorded” stand apart in the source; their conditions may differ. Non-standard residues stand in square brackets, D forms with d. Residues, ends and D or L forms follow the SMILES beside them. *: point of attachment. Gla = N[C@@H](CC(C(=O)O)C(=O)O)C(=O)O; Tos = Cc1ccc(S(=O)(=O)*)cc1

Assays:
[1] = system: commercial human pool plasma; assay: Coagulation tests (PT, APTT, TT, anti Xa, aPC-resistance) in human pool plasma
Experimental: All coagulation tests as PT (Prothrombin Time), APTT (activated partial thromboplastin time), TT (Thrombin Time), anti Xa, aPC-resistance were carried out in collaboration with the routine coagulation lab in Sheba Medical Center and conducted on a commercial human pool plasma samples.
Coagulation tests were conducted at the Sheba Medical Center (as described in details in the ‘general materials and experimental procedures’ section above) and a commercial pool human plasma was used. PEP6 was applied in various concentrations for injection in vivo and for evaluating the safety and the width of the therapeutic window for treatment.

[2] = system: Long Term Potentiation (LTP), hippocampal slices; assay: In vitro electrophysiology, Long Term Potentiation in hippocampal slices; parameters: species or system mice; conditions: peptides at 10 μM, HFS 100 Hz 1 second
Experimental: The efficacy of the peptides was tested using in vitro electrophysiology. Here the present inventors tested whether these peptides have similar effects as aPC in enhancing Long Term Potentiation. Briefly, mice (10-12 weeks of age) were rapidly decapitated, the hippocampus was removed, and 400 μm slices were prepared using a vibroslicer. Slices were incubated for 1.5 hours in a humidified, carbogenated (5% CO2 and 95% O2) gas atmosphere at 33±1° C. and were perfused with ACSF [containing (in mm) 124 NaCl, 2 KCl, 26 NaHCO3, 1.24 KH2PO4, 2.5 CaCl2, 2 MgSO4, and 10 glucose, pH 7.4] in a standard interface chamber. Recordings were made with a glass pipette containing 0.75 m NaCl (4 MΩ) placed in the stratum radiatum CA1.
Stimulation was evoked using a Master 8 pulse stimulator (A.M.P.I., Jerusalem, Israel) and was delivered through a bipolar nichrome electrode placed at a side of the recording electrode. LTP was induced by high-frequency stimulation (HFS) consisting of 100 pulses at twice the test intensity, delivered at a frequency of 100 Hz (100 Hz, 1 second). Before applying the tetanic stimulation, baseline values were recorded at a frequency of 0.033 Hz. Responses were digitized at 5 kHz and stored on a computer. Off-line analysis and data acquisition were performed using the LTP Program (Anderson and Collingridge, 2001). Peptides were tested at a concentration of 10 μM.

Compound	Effect in APTT (activated partial thromboplastin time) test [1]	Effect in PT (Prothrombin Time) test [1]	Effect on coagulation tests (all conducted tests) ([1]; any concentration tested)	Effect on Long Term Potentiation (LTP) [2]
Cc1ccc(S(=O)(=O)N[C@@H](CC(C(=O)O)C(=O)O)C(=O)N[C@@H](CCC(=O)O)C(=O)N[C@@H](C)C(=O)N[C@@H](CCCNC(=N)N)C(N)=O)cc1 [Pep6, Tos-{Gla}-EAR-NH2] (Tos-[Gla]EAR-NH2)	small but statistically significant effect	small but statistically significant effect	either no effect or clinical-irrelevant effect; also recorded: did not affect	
Tos-{Gla}-EAK-NH2 (Tos-[Gla]EAK-NH2; SMILES Cc1ccc(S(=O)(=O)N[C@@H](CC(C(=O)O)C(=O)O)C(=O)N[C@@H](CCC(=O)O)C(=O)N[C@@H](C)C(=O)N[C@@H](CCCCN)C(N)=O)cc1) [Pep5, N-terminal Tosyl, C-terminal amide, γ-carboxylated Glu]				enhanced
Tos-{Gla}-EAK-{Gla}-IF-NH2 (Tos-[Gla]EAK[Gla]IF-NH2; SMILES CC[C@H](C)[C@H](NC(=O)[C@H](CC(C(=O)O)C(=O)O)NC(=O)[C@H](CCCCN)NC(=O)[C@H](C)NC(=O)[C@H](CCC(=O)O)NC(=O)[C@H](CC(C(=O)O)C(=O)O)NS(=O)(=O)c1ccc(C)cc1)C(=O)N[C@@H](Cc1ccccc1)C(N)=O) [Pep7, N-terminal Tosyl, C-terminal amide, γ-carboxylated Glu]				enhanced
Tos-{Gla}-EAR-{Gla}-IF-NH2 (Tos-[Gla]EAR[Gla]IF-NH2; SMILES CC[C@H](C)[C@H](NC(=O)[C@H](CC(C(=O)O)C(=O)O)NC(=O)[C@H](CCCNC(=N)N)NC(=O)[C@H](C)NC(=O)[C@H](CCC(=O)O)NC(=O)[C@H](CC(C(=O)O)C(=O)O)NS(=O)(=O)c1ccc(C)cc1)C(=O)N[C@@H](Cc1ccccc1)C(N)=O) [Pep8, N-terminal Tosyl, C-terminal amide, γ-carboxylated Glu]				enhanced
